ChEMBL document CHEMBL4184336, “Structure-Guided Modification of Heterocyclic Antagonists of the P2Y14 Receptor” (J Med Chem, 2018)

Assays:
P2Y purinoceptor 14 = target: T1, P2Y purinoceptor 14 (Homo sapiens, UniProt Q15391)
T1 sequence (Q15391 whole entry): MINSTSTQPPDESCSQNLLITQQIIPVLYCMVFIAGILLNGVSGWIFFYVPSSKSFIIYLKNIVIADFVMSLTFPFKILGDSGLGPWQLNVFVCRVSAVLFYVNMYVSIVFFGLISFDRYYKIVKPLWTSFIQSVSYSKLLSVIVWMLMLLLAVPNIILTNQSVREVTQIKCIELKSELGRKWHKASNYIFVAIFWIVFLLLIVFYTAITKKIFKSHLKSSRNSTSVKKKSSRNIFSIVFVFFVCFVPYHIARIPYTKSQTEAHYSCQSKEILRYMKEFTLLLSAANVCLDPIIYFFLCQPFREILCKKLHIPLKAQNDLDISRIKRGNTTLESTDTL
Description: Displacement of MRS4174 from human P2Y14R expressed in CHO cells preincubated for 30 mins followed by MRS4174 addition measured after 30 mins by flow cytometric method

[1] = target: Sodium-dependent noradrenaline transporter (Homo sapiens, UniProt P23975); assay: Displacement of [3H]-Nisoxetine from human NET expressed in HEK293 cell membranes after 90 mins by scintillation counting method
Sequence of Sodium-dependent noradrenaline transporter (P23975 whole entry): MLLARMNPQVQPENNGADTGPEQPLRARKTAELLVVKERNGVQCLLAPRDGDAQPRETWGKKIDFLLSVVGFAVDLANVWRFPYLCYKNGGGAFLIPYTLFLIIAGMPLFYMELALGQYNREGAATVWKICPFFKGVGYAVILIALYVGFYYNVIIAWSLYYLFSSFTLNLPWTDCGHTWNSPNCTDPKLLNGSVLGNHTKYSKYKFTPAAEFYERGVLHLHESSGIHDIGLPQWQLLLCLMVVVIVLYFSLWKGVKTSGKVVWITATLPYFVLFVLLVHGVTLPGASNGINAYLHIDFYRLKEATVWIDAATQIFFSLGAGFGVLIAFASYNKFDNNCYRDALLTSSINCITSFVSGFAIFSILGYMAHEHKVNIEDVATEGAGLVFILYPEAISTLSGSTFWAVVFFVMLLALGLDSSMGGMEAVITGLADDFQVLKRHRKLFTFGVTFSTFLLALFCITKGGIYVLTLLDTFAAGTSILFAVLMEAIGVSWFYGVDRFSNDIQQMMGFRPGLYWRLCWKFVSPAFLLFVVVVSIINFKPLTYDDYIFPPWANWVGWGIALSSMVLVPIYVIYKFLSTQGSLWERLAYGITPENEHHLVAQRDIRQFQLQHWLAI

Row | SMILES | IC50 (P2Y purinoceptor 14) | Ki [1]
1 | O=C(O)c1cc(-c2ccc(CN3CCNCC3)s2)cc(-n2cc(-c3ccc(C(F)(F)F)cc3)nn2)c1 | 1.96 µM | 
2 | CNC(=O)c1ccc(-c2cc(C(=O)O)cc(-n3cc(-c4ccc(C(F)(F)F)cc4)nn3)c2)cc1 | 0.563 µM | 
3 | O=C(O)c1cc(O)cc(-n2cc(-c3ccc(C(F)(F)F)cc3)nn2)c1 | 16.4 µM | 
4 | CC(C)(C)OC(=O)NCCNS(=O)(=O)c1ccc(-c2cc(C(=O)O)cc(-n3cc(-c4ccc(C(F)(F)F)cc4)nn3)c2)s1 | 5.92 µM | 
5 | NCCCCNS(=O)(=O)c1ccc(-c2cc(C(=O)O)cc(-n3cc(-c4ccc(C(F)(F)F)cc4)nn3)c2)s1 | 2.18 µM | 
6 | NCCCNC(=O)c1ccc(-c2cc(C(=O)O)cc(-n3cc(-c4ccc(C(F)(F)F)cc4)nn3)c2)o1 | 10.9 µM | 
7 | O=C(O)c1cc(O)c2ccc(-c3ccc(C(F)(F)F)cc3)cc2c1 |  | 5.8 µM
8 | CC(C)(C)OC(=O)N1CCN(C(=O)c2ccc(-c3cc(C(=O)O)cc(-n4cc(-c5ccc(C(F)(F)F)cc5)nn4)c3)s2)CC1 | 53 µM | 
9 | CC(C)(C)OC(=O)N1CCN(Cc2ccc(-c3cc(C(=O)O)cc(-n4cc(-c5ccc(C(F)(F)F)cc5)nn4)c3)s2)CC1 | 67.2 µM | 
10 | CC(C)(C)OC(=O)N1CCN(S(=O)(=O)c2ccc(-c3cc(C(=O)O)cc(-n4cc(-c5ccc(C(F)(F)F)cc5)nn4)c3)cc2)CC1 | > 50 µM | 
11 | NCCCNC(=O)c1cc(-c2cc(C(=O)O)cc(-n3cc(-c4ccc(C(F)(F)F)cc4)nn3)c2)cs1 | 1.75 µM | 
12 | FC(F)(F)c1ccc(-c2cn(-c3cc(-c4ccc(C5CCNCC5)cc4)cc(-c4nnn[nH]4)c3)nn2)cc1 | 0.958 µM | 
13 | NCCCNC(=O)c1csc(-c2cc(C(=O)O)cc(-n3cc(-c4ccc(C(F)(F)F)cc4)nn3)c2)c1 | 0.735 µM | 
14 | NC(=O)c1ccc(-c2cc(C(=O)O)cc(-n3cc(-c4ccc(C(F)(F)F)cc4)nn3)c2)cn1 | 1.41 µM | 
15 | CC(C)(C)NC(=O)c1ccc(-c2cc(C(=O)O)cc(-n3cc(-c4ccc(C(F)(F)F)cc4)nn3)c2)cc1 | 7.53 µM | 
16 | NC(=O)c1ccc(-c2cc(-c3nnn[nH]3)cc(-n3cc(-c4ccc(C(F)(F)F)cc4)nn3)c2)cc1 | 2.43 µM | 
17 | CC(C)(C)NC(=O)c1ccc(-c2cc(-c3nnn[nH]3)cc(-n3cc(-c4ccc(C(F)(F)F)cc4)nn3)c2)cc1 | 20.7 µM | 
18 | CC(C)(C)OC(=O)N1CCN(S(=O)(=O)c2ccc(-c3cc(C(=O)O)cc(-n4cc(-c5ccc(C(F)(F)F)cc5)nn4)c3)s2)CC1 | 54.7 µM | 
19 | NCCNS(=O)(=O)c1ccc(-c2cc(C(=O)O)cc(-n3cc(-c4ccc(C(F)(F)F)cc4)nn3)c2)s1 | 2.26 µM | 
20 | CC(C)(C)OC(=O)NCCCCNS(=O)(=O)c1ccc(-c2cc(C(=O)O)cc(-n3cc(-c4ccc(C(F)(F)F)cc4)nn3)c2)s1 | 13.6 µM | 
21 | NC(=O)c1ccc(-c2cc(C(=O)O)cc(-n3cc(-c4ccc(C(F)(F)F)cc4)nn3)c2)o1 | 3.11 µM | 
